Measurements reported in patent publication US8618289B2 (Ambit Biosciences Corporation, priority 2008, dated 2013).

What was measured:
[1] = test system: MEK1 phosphorylation in the A375 human melanoma cell line; assay: cells; conditions: A-375, read-out: pMEK IC50
[2] = target: RAF kinases (Homo sapiens, UniProt P15056); conditions: read-out: BRAF WT Kd; BRAF WT
[3] = target: RAF kinases (Homo sapiens, UniProt P04049); conditions: read-out: RAF1 Kd; RAF1
[4] = target: RAF kinases (Homo sapiens, UniProt P15056, V600E); conditions: read-out: BRAF V600E Kd; BRAF V600E
[5] = test system: A375 cells; assay: cells; conditions: Homo sapiens, A-375, read-out: A375 Viability EC50

Chain of RAF kinases (Homo sapiens, UniProt P15056, V600E) (P15056 whole entry V600E): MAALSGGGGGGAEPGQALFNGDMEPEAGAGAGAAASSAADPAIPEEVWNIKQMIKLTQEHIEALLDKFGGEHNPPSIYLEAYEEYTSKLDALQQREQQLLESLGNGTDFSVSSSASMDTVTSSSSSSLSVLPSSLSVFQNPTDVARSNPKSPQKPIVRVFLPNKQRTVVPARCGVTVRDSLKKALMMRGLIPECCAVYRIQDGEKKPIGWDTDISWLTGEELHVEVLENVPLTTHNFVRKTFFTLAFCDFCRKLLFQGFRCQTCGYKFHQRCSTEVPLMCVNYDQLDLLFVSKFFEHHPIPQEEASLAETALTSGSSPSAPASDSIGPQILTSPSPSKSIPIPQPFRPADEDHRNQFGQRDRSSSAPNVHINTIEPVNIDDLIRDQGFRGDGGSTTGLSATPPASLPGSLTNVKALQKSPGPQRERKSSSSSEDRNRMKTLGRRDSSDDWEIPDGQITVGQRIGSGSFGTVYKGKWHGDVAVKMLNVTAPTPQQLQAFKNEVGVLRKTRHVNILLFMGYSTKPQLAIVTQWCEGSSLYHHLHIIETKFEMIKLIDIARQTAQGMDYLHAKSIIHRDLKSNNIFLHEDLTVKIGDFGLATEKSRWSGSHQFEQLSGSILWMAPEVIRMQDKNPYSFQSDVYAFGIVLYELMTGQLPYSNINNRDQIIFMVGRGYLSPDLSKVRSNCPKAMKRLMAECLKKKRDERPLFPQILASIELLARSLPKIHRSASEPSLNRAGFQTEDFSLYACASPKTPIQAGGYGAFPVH
Chain of RAF kinases (Homo sapiens, UniProt P15056) (P15056 whole entry): as the sequence (P15056 whole entry V600E) above, with E600V counted along it
Chain of RAF kinases (Homo sapiens, UniProt P04049) (P04049 whole entry): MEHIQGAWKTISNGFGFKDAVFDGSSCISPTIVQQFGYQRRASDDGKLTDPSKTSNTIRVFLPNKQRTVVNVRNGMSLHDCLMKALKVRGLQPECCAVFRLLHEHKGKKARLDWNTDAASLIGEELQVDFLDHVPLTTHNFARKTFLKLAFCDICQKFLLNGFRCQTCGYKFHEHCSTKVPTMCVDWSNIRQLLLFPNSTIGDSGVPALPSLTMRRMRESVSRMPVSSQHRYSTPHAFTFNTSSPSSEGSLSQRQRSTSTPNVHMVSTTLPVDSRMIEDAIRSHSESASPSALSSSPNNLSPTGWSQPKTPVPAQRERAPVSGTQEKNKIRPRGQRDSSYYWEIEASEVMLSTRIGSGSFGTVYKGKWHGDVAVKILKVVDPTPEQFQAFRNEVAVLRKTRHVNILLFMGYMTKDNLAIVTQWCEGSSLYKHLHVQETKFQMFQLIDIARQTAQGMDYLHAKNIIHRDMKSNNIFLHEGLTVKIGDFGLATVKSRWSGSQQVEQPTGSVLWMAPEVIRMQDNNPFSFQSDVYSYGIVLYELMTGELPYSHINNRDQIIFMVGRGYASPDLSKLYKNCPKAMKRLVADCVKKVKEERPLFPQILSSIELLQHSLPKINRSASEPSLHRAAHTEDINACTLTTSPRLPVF

IC50 [1]	Kd [2]	Kd [3]	Kd [4]	EC50 [5]	Structure (SMILES)
< 250 nM	< 250 nM	< 250 nM	< 250 nM	< 250 nM	COc1cc2c(Oc3cccc(NC(=O)Nc4cc(C(C)(C)C)on4)c3)ncnc2cc1OCCCN1CCS(=O)(=O)CC1 [Ex 256, 1-(5-tert-butyl-isoxazol-3-yl)-3-(3-{7-[3-(1,1-dioxo-thiomorpholin-4-yl)-propoxy]-6-methoxy-quinazolin-4-yloxy}-phenyl)-urea]
250 to 500 nM	< 250 nM	< 250 nM	< 250 nM	500 to 1000 nM	COc1cc2c(Oc3cccc(NC(=O)Nc4cc(C(C)(C)F)no4)c3)ncnc2cc1O [Ex 257, 1-(3-(2-fluoropropan-2-yl)isoxazol-5-yl)-3-(3-(7-hydroxy-6-methoxyquinazolin-4-yloxy)phenyl)urea]
< 250 nM	< 250 nM	< 250 nM	< 250 nM	250 to 500 nM	COc1cc2ncnc(Oc3cccc(NC(=O)Nc4cc(C(C)(C)F)no4)c3)c2cc1O [Ex 258, 1-(3-(2-fluoropropan-2-yl)isoxazol-5-yl)-3-(3-(6-hydroxy-7-methoxyquinazolin-4-yloxy)phenyl)urea]
< 250 nM	< 250 nM	< 250 nM	< 250 nM	> 1000 nM	CCOc1cc2c(Sc3cccc(NC(=O)Nc4cc(C(C)(C)C(F)(F)F)on4)c3)ncnc2cc1OC [Ex 262, 1-(3-(6-ethoxy-7-methoxyquinazolin-4-ylthio)phenyl)-3-(5-(1,1,1-trifluoro-2-methylpropan-2-yl)isoxazol-3-yl)urea]
< 250 nM	< 250 nM	< 250 nM	< 250 nM	< 250 nM	COc1cc2ncnc(Oc3cccc(NC(=O)Nc4cc(C(C)(C)C(F)(F)F)on4)c3)c2cc1O [Ex 264, 1-(3-(6-hydroxy-7-methoxyquinazolin-4-yloxy)phenyl)-3-(5-(1,1,1-trifluoro-2-methylpropan-2-yl)isoxazol-3-yl)urea]
250 to 500 nM	< 250 nM	< 250 nM	< 250 nM	> 1000 nM	COc1cc2ncnc(Sc3cccc(NC(=O)Nc4cccc(C(C)(C)C#N)c4)c3)c2cc1OC [Ex 279, 1-(3-(2-cyanopropan-2-yl)phenyl)-3-(3-(6,7-dimethoxyquinazolin-4-ylthio)phenyl)urea]
< 250 nM	> 1000 nM	> 1000 nM	> 1000 nM	> 1000 nM	COc1cc2ncnc(Sc3cccc(NC(=O)Nc4cc(C(C)(C)C)nn4-c4ccc(C)cc4C)c3)c2cc1OC [Ex 284, 1-(3-tert-butyl-1-(2,4-dimethylphenyl)-1H-pyrazol-5-yl)-3-(3-(6,7-dimethoxyquinazolin-4-ylthio)phenyl)urea]
> 1000 nM	< 250 nM	< 250 nM	< 250 nM	> 1000 nM	COc1cc2ncnc(Oc3cccc(NC(=O)Nc4cc(C(C)(C)F)no4)c3F)c2cc1OC [Ex 296, 1-(3-(6,7-dimethoxyquinazolin-4-yloxy)-2-fluorophenyl)-3-(3-(2-fluoropropan-2-yl)isoxazol-5-yl)urea]
< 250 nM	> 1000 nM	> 1000 nM	> 1000 nM	< 250 nM	COc1cc2ncnc(Oc3ccc(Cl)c(NC(=O)Nc4cc(C(C)(C)C)nn4-c4ccc(C)cc4)c3)c2cc1OC [Ex 298, 1-(3-tert-butyl-1-p-tolyl-1H-pyrazol-5-yl)-3-(2-chloro-5-(6,7-dimethoxyquinazolin-4-yloxy)phenyl)urea]
< 250 nM	> 1000 nM	> 1000 nM	> 1000 nM	250 to 500 nM	COc1cc2ncnc(Oc3ccc(Cl)c(NC(=O)Nc4cc(C(C)(C)C)nn4-c4ccccc4)c3)c2cc1OC [Ex 301, 1-(3-tert-butyl-1-phenyl-1H-pyrazol-5-yl)-3-(2-chloro-5-(6,7-dimethoxyquinazolin-4-yloxy)phenyl)urea]

The next lines start with the compound.

Structure (SMILES)	IC50 [1]	Kd [2]	Kd [3]	Kd [4]	EC50 [5]
CCOc1cc2c(Oc3cccc(NC(=O)Nc4cc(C(C)(C)C(F)(F)F)on4)c3)ncnc2cc1OC [Ex 260, 1-(3-(6-ethoxy-7-methoxyquinazolin-4-yloxy)phenyl)-3-(5-(1,1,1-trifluoro-2-methylpropan-2-yl)isoxazol-3-yl)urea]	< 250 nM	< 250 nM	< 250 nM	< 250 nM	< 250 nM
COc1cc2c(Oc3cccc(NC(=O)Nc4cc(C(C)(C)C(F)(F)F)on4)c3)ncnc2cc1O [Ex 263, 1-(3-(7-hydroxy-6-methoxyquinazolin-4-yloxy)phenyl)-3-(5-(1,1,1-trifluoro-2-methylpropan-2-yl)isoxazol-3-yl)urea]	< 250 nM	< 250 nM	< 250 nM	< 250 nM	500 to 1000 nM
COc1cc2ncnc(Oc3cccc(NC(=O)Nc4cc(C(C)(C)C(F)(F)F)no4)c3)c2cc1OC [Ex 267, 1-(3-(6,7-dimethoxyquinazolin-4-yloxy)phenyl)-3-(3-(1,1,1-trifluoro-2-methylpropan-2-yl)isoxazol-5-yl)urea]	< 250 nM	< 250 nM	< 250 nM	< 250 nM	500 to 1000 nM
COc1cc2ncnc(Sc3cccc(NC(=O)Nc4cc(C(C)(C)C(F)(F)F)no4)c3)c2cc1OC [Ex 268, 1-(3-(6,7-dimethoxyquinazolin-4-ylthio)phenyl)-3-(3-(1,1,1-trifluoro-2-methylpropan-2-yl)isoxazol-5-yl)urea]	< 250 nM	< 250 nM	< 250 nM	< 250 nM	500 to 1000 nM
COc1cc2ncnc(Oc3cc(NC(=O)Nc4cc(C(C)(C)F)no4)c(F)cc3F)c2cc1OC [Ex 269, 1-(5-(6,7-dimethoxyquinazolin-4-yloxy)-2,4-difluorophenyl)-3-(3-(2-fluoropropan-2-yl)isoxazol-5-yl)urea]	< 250 nM	< 250 nM	< 250 nM	< 250 nM	< 250 nM
COc1cc2ncnc(Oc3cc(NC(=O)Nc4cc(C(C)(C)C)on4)c(F)cc3F)c2cc1OC [Ex 270, 1-(5-tert-butylisoxazol-3-yl)-3-(5-(6,7-dimethoxyquinazolin-4-yloxy)-2,4-difluorophenyl)urea]	< 250 nM	< 250 nM	< 250 nM	< 250 nM	< 250 nM
COc1cc2ncnc(Oc3cccc(NC(=O)Nc4cccc(C(C)(C)C#N)c4)c3)c2cc1OC [Ex 278, 1-(3-(2-cyanopropan-2-yl)phenyl)-3-(3-(6,7-dimethoxyquinazolin-4-yloxy)phenyl)urea]	250 to 500 nM	< 250 nM	< 250 nM	< 250 nM	500 to 1000 nM
COCCOc1cc2ncnc(Oc3cccc(NC(=O)Nc4cccc(C(C)(C)C#N)c4)c3)c2cc1OC [Ex 280, 1-(3-(2-cyanopropan-2-yl)phenyl)-3-(3-(6-methoxy-7-(2-methoxyethoxy)quinazolin-4-yloxy)phenyl)urea]	500 to 1000 nM	< 250 nM	< 250 nM	< 250 nM	> 1000 nM
COc1cc2ncnc(Oc3cccc(NC(=O)Nc4cc(C(C)(CF)CF)on4)c3F)c2cc1OC [Ex 297, 1-(5-(1,3-difluoro-2-methylpropan-2-yl)isoxazol-3-yl)-3-(3-(6,7-dimethoxyquinazolin-4-yloxy)-2-fluorophenyl)urea]	250 to 500 nM	< 250 nM	< 250 nM	< 250 nM	250 to 500 nM
